According to ChEMBL document CHEMBL4831534, “Design, Synthesis, and Monoamine Oxidase Inhibitory Activity of (+)-Cinchonaminone and Its Simplified Derivatives” (ACS Med Chem Lett, 2021):

What was measured:
[1] = target: T1, Amine oxidase [flavin-containing] B (Homo sapiens, UniProt P27338); test: Inhibition of human recombinant MAO-B expressed in baculovirus infected BTI insect cells using luminogenic MAO substrate incubated for 1 hr by MAO-Glo assay
T1 sequence (P27338 whole entry): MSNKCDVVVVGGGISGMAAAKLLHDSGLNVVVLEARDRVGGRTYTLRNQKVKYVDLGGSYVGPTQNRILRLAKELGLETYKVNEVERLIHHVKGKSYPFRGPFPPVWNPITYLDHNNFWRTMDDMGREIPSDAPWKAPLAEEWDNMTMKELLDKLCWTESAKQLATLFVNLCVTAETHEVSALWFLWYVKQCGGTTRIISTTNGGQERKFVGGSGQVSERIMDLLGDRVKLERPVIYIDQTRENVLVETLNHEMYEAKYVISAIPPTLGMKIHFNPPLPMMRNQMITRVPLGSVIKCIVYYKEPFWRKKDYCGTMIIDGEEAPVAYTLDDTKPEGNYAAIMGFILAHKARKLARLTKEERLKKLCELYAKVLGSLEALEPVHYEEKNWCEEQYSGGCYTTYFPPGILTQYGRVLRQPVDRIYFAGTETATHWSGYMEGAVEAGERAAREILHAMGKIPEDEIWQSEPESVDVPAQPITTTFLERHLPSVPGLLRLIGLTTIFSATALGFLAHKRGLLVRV

[2] = target: T2, Amine oxidase [flavin-containing] A (Homo sapiens, UniProt P21397); test: Inhibition of human recombinant MAO-A expressed in baculovirus infected BTI insect cells using luminogenic MAO substrate incubated for 1 hr by MAO-Glo assay
T2 sequence (P21397 whole entry): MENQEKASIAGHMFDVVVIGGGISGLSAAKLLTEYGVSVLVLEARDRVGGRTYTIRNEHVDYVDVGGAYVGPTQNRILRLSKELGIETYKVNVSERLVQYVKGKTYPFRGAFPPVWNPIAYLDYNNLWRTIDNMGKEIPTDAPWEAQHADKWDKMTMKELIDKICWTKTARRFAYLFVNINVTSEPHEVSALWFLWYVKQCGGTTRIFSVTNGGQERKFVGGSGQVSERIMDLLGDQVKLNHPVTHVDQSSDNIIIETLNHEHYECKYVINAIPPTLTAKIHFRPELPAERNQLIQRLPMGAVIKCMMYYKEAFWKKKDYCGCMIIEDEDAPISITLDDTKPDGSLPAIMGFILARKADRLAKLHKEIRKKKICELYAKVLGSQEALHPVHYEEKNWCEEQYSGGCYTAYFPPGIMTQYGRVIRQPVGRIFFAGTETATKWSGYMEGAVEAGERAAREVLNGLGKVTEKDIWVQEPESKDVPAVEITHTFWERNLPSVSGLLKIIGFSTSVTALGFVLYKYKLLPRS

Homo sapiens = organism: Homo sapiens; test: Selectivity index, ratio of IC50 for human recombinant MOA-A expressed in baculovirus infected BTI insect cells to IC50 for MAO-B expressed in baculovirus infected BTI insect cells; details: time 1.0 hrs

SMILES	IC50 [1]	IC50 [2]	Selectivity Index (Homo sapiens)
C=C[C@H]1CNCC[C@H]1CC(=O)c1[nH]c2ccccc2c1CCO	412 µM	> 1000 µM	–
O=C(CC1CCNCC1)c1cc2ccccc2[nH]1	66.6 µM	720 µM	11
Cc1c(C(=O)CC2CCNCC2)[nH]c2ccccc12	121 µM	82.5 µM	–
O=C(CC1CCNCC1)c1[nH]c2ccccc2c1CCO	> 1000 µM	> 1000 µM	–
C=C[C@@H]1CNCC[C@@H]1CC(=O)c1[nH]c2ccccc2c1CCO	488 µM	> 1000 µM	–
